Columns and labels:
[1] = system: human melanoma IGR39 cell line; test: MTT cell viability assay, melanoma IGR39; assay type: cell-based; details: for effect on cell viability compared among the cell lines: 100 µM; for effect on cell viability compared among the cell lines / EC50: 72 h, MTT; for selectivity towards cancer cells compared to fibroblasts: IGR39 (melanoma) vs fibroblasts; for EC50: Homo sapiens, IGR-39, IGR39
Text: (§1) The human malignant melanoma cell line IGR39, human triple-negative breast cancer MDA-MB-231, and human pancreatic carcinoma cell line Panc-1 were obtained from the American Type Culture Collection (ATCC, Manassas, VA, USA). Human foreskin fibroblasts (HF) CRL-4001 were originally obtained from ATCC and kindly provided by Prof. Helder Santos (University of Helsinki, Finland). Primary prostate carcinoma PPC-1 cell line was kindly provided by Prof. Tambet Teesalu (University of Tartu, Estonia). All cell lines were cultured in Dulbecco’s Modified Eagle’s GlutaMAX medium (Gibco (Carlsbad, CA, USA)), supplemented with 10,000 U/mL penicillin, 10 mg/mL streptomycin (Gibco), and 10% fetal bovine serum (Gibco). Cell cultures were grown at 37 °C in a humidified atmosphere containing 5% CO2. They were used until the passage of 20.
(§2) The effect of synthesized compounds on cell viability was studied using 3-(4,5-dimethylthiazol-2-yl)-2,5-diphenyltetrazolium bromide (MTT; Sigma-Aldrich Co., St Louis, MO, USA) assay, as described elsewhere. To summarize, the cells were seeded in triplicates in 96-well Corning plates (IGR39, MDA-MB-231, Panc-1 and PPC1: 4 × 10^3 cells/well; HF: 5 × 10^3 cells/well). The cells were treated with 100 μM of tested compounds after 24 h of incubation. After 72 h, the MTT reagent was added and the formazan crystals that had formed were dissolved in DMSO (Sigma-Aldrich Co., St. Louis, MO, USA). The absorbance was determined with a multidetection microplate reader at 570 and 630 nm.
(§3) The compound serial dilutions ranging from 50 µM to 1.56 µM were introduced to the cells. The Hill equation was used to calculate the EC50 value, or the concentration of a compound that results in a 50% reduction in the metabolic activity of cells.

[2] = system: PPC-1 spheroids (cancer cells with fibroblasts 1:1); test: 3D culture: PPC-1 spheroid size and viability (WST-1); assay type: cell-based, human; details: 5 and 10 µM, 8 days
Protocol: (§4) Spheroids were made of cancer cells combined with fibroblast in a 1:1 ratio to better represent the real tumor microenvironment.
(§5) The magnetic 3D Bioprinting method was utilized to form cancer cell spheroids as described elsewhere. In short, the cells at 70% confluency were incubated with Nanoshuttle (n3D Biosciences, Inc., Houston, TX, USA) for 8 h. After that, the cells were trypsinized, centrifuged and seeded into ultra-low attachment 96-well plate at a ratio of 1.5 × 10^3 cancer cells and 1.5 × 10^3 human fibroblasts/well. The plate was incubated for two days at 37 °C in a humidified atmosphere on a magnetic drive. Next, the medium with 5 and 10 µM of selected compounds was added. Photos of spheroids were taken every two days using an Olympus IX73 inverted microscope (OLYMPUS CORPORATION, Tokyo, Japan), and analysis of spheroid size was performed using ImageJ, version 1.53o (National Institutes of Health, Bethesda, MD, USA) and Microsoft Office Excel 2016 software (Microsoft Corporation, Redmond, WA, USA).
(§6) On the last day of experiment, 10 µL of WST-1 reagent (Sigma-Aldrich Co, St. Louis, MO, USA) was added to each well. Following 10-h incubation, 50 µL of liquid from each well was moved to another 96-well plate and the absorbance was measured at 460 and 530 nm.

[3] = system: prostate carcinoma PPC-1 cell line; test: MTT cell viability assay, prostate carcinoma PPC-1; assay type: cell-based, human
Text: as §1, §2, §3

[4] = system: tested cancer cell lines (IGR39, PPC-1, MDA-MB-231, Panc-1); test: MTT cell viability assay, statements on the tested cancer cell lines together; assay type: cell-based, human; details: Homo sapiens; against IGR39 and PPC-1 cell lines
Protocol: as §2, §3

[5] = system: IGR39 spheroids (cancer cells with fibroblasts 1:1); test: 3D culture: IGR39 spheroid size and viability (WST-1); assay type: cell-based, human; details: for effect on spheroid growth / size: 5 and 10 µM, 8 days
Protocol: as §4, §5, §6

[6] = Ferric reducing antioxidant power (FRAP) assay
Text: The ferric reducing antioxidant power (FRAP) assay was used to evaluate the antioxidant potential of new compounds 2–17. Antioxidant assays are based on determining reduction power reactions (e.g., reduction Fe^3+ to Fe^2+) or scavenging free radicals (DPPH, ABTS). The FRAP assay is based on the method of single electron transfer (SET), measuring the reduction in the complex of ferric ions (Fe^3+)-ligand to the blue ferrous complex (Fe^2+). This method uses 2,4,6-tripyridyl-s-triazine (TPTZ) as the linking ligand to the iron. The antioxidant activity of the synthesized compounds was compared with that of the well-known antioxidant protocatechuic acid. […] PCA is a building block for pharmaceuticals and is widely used to produce many medicinal products such as veratridine (sodium channel inactivation inhibitor), erlotinib (antineoplastic), Picatin II (treatment of hepatitis B), itopride hydrochloride (gastrointestinal motility drug). PCA can also cause the induction of apoptosis of human leukemia cells. Moreover, the antioxidant activity of PCA is based on the reduction in free radical formation via the up-regulation of genes encoding enzymes with neutralizing activities.
Antioxidant activity was determined as an increase in absorbance at 593 nm, and the results were expressed as of Fe^2+ μmol/L and in relation to antioxidants, and protocatechuic acid, as positive control. The FRAP reagent contained 2.5 mL of 10 mM TPTZ solution in 40 mM HCl as well as 2.5 mL of FeCl3 (20 mM) and 25 mL of acetate buffer (0.3 M, pH = 3.6). Then, 100 μL of analyzed compounds (20 mM) were mixed with 3 mL of the FRAP reagent. The absorbance of the reaction mixture was measured spectrophotometrically at 593 nm using a UV-1280 UV-VIS spectrophotometer (Shimadzu Corporation, Kyoto, Japan). To compose the calibration curve, five concentrations of FeSO4·7H2O (5, 10, 15, 20, 25 μM) were used, and the absorbance was measured as a sample solution.

PPC-1 cell migration = test: 'Wound healing' migration assay, PPC-1; assay type: cell-based, human; details: 72 h of incubation
Protocol: (§7) Cancer cells were seeded at a density of 6 × 10^4 cells/well in 24-well plates. After 48 h of incubation, a 100 µL pipette tip was used to make the scratch in each well. Following a single PBS wash, the fresh medium containing 2 and 5 µM of compounds 5, 6, 13, and 14 was added to the cells. As a negative control, medium containing 0.1% DMSO was employed.

IGR39 cell migration = test: 'Wound healing' migration assay, IGR39; assay type: cell-based, human; details: 48 h of incubation; control 'wound' completely closed
Protocol: as §7

[7] = system: human triple-negative breast cancer MDA-MB-231 cell line; test: MTT cell viability assay, MDA-MB-231; assay type: cell-based; details: 72 h; for EC50: Homo sapiens, MDA-MB-231
Text: as §1, §2, §3

Panc-1 cell migration = test: 'Wound healing' migration assay, Panc-1; assay type: cell-based, human; details: 72 h of incubation
Protocol: as §7

[8] = system: human pancreatic carcinoma Panc-1 cell line; test: MTT cell viability assay, Panc-1; assay type: cell-based
Text: as §1, §2, §3

melanoma cell = system: melanoma cell; parameters: method as in PMID 21700700; details: cited from earlier work

| SMILES | melting point [°C] | effect on cell viability compared among the cell lines [1] | effect on spheroid growth / size [2] | EC50 [4] [µM] | effect on spheroid growth / size [5] | effect on spheroid viability compared to the control ([5]; WST-1, end of experiment) | selectivity towards cancer cells compared to fibroblasts [1] | EC50 [7] [µM] | EC50 [1] [µM] | further results |
| --- | --- | --- | --- | --- | --- | --- | --- | --- | --- | --- |
| O=C(NN=Cc1cc(Cl)ccc1O)C1CC(=O)N(c2ccc(Nc3ccccc3)cc2)C1 (stereo not drawn) [Compound 5, N′-(5-chloro-2-hydroxybenzylidene)-5-oxo-1-(4-(phenylamino)phenyl)pyrrolidine-3-carbohydrazide] | 223 to 224 | strongest effect on melanoma cells | did not affect spheroid growth | 2.5 to 20.2 | did not affect spheroid growth | statistically significant effect | – | – | – | selectivity towards cancer cells compared to fibroblasts ([3]; prostate carcinoma vs fibroblasts): 3.6; spheroid cell viability (reduced up to) ([5]; WST-1, end of experiment): ~ 75% |
| O=C(NN=Cc1ccc(Cl)c(Cl)c1)C1CC(=O)N(c2ccc(Nc3ccccc3)cc2)C1 (stereo not drawn) [Compound 6, N′-(3,4-dichlorobenzylidene)-5-oxo-1-(4-(phenylamino)phenyl)pyrrolidine-3-carbohydrazide] | 220 to 221 | strongest effect on melanoma cells | – | 2.5 to 20.2 | – | statistically significant effect | 2.8 | – | – | reducing power activity compared to the control antioxidant ([6]; vs protocatechuic acid): higher than those of known antioxidants used as the controls; effect on cell migration (PPC-1 cell migration; higher concentration (5 µM)): inhibited |
| O=C(NN=Cc1ccc([N+](=O)[O-])s1)C1CC(=O)N(c2ccc(Nc3ccccc3)cc2)C1 (stereo not drawn) [Compound 13, N′-((5-nitrothiophen-2-yl)methylene)-5-oxo-1-(4-(phenylamino)phenyl)pyrrolidine-3-carbohydrazide] | 235 to 236 | strongest effect on melanoma cells | – | 2.5 to 20.2 | – | statistically significant effect | 2.8 | 5.1 ± 0.8 | 2.5 ± 0.46 | 'wound' area (IGR39 cell migration): 15.8 ± 8.8%; cell viability compared to the control (inhibited up to) ([7]; 100 µM): ~ 9%; 'wound' area compared to the control (times larger) (Panc-1 cell migration): 7.5 times; FRAP reducing power (Fe^2+) ([6]; absorbance at 593 nm): 103.95 µmol/L; EC50 ([3]; Homo sapiens, MTT, 72 h, PPC-1): 3.63 ± 0.45 µM; cell viability compared to the control (inhibited up to) ([8]; 100 µM, 72 h, MTT): ~ 9%; EC50 ([8]; Homo sapiens, MTT, 72 h, Panc-1): 5.77 ± 0.8 µM; selectivity towards cancer cells compared to fibroblasts ([8]; Panc-1 vs fibroblasts): 1.2; 'wound' area compared to the control (times larger) (PPC-1 cell migration): ~ 24 times |
| O=C(NN=Cc1c[nH]c2ccccc12)C1CC(=O)N(c2ccc(Nc3ccccc3)cc2)C1 (stereo not drawn) [Compound 14, N′-((1H-indol-3-yl)methylene)-5-oxo-1-(4-(phenylamino)phenyl)pyrrolidine-3-carbohydrazide] | 238 to 239 | strongest effect on melanoma cells | slightly reduced the growth | 2.5 to 20.2 | became somewhat larger | – | – | 19.8 ± 1.86 | 10.4 ± 1.35 | – |
| CN(C)/N=N/c1[nH]cnc1C(N)=O [dacarbazine] | – | – | – | – | – | – | – | – | – | concentration that inhibits melanoma cell proliferation (melanoma cell): 25 to 100 µM |
